# From patent US9561249B2, “Pharmaceutical formulations of nitrite and uses thereof” (TheraVasc Inc., priority 2013, dated 2017)
# Where two headings read alike, the source gives them in different places.
# Test system: subjects with PAD
# Description: Supine vital signs were measured at the Screening Visit. The subject rested in a supine position for a minimum of 3 minutes prior to obtaining vital sign measurements. Vital signs included BP and pulse rate. Postural vital signs, including both supine and standing measurements of blood pressure and pulse rate, were recorded at all study visits following the first dose of IP administration. Measurements were performed as follows: (1) the subject rested in a supine position for a minimum of 3 minutes, (2) vital signs (BP and pulse rate) were measured while the subject was supine, (3) the subject assumed a standing position for a minimum of 5 minutes, and (4) vital signs (BP and pulse rate) were measured while the subject was standing.
# [1] = 40-mg group, Screening (baseline)
# [2] = 40-mg group, Visit 7 (Day 71, dose doubled)
# [3] = 40-mg group, Visit 8 (6 days after dose doubling)
# [4] = 80-mg group, Screening (baseline)
# [5] = 80-mg group, Visit 7 (Day 71, dose doubled)
# [6] = 80-mg group, Visit 8 (6 days after dose doubling)
structure (smiles),measurement,setting,value
O=NO [sodium nitrite],"Blood Pressure diastolic, Supine (Mean)",[1],75.8
same,"Blood Pressure systolic, Supine (Mean)",[1],136.8
same,"Pulse, Supine (Mean)",[1],71.4
same,"Blood Pressure diastolic, Standing (Mean)","40-mg group, Visit 1 (Day 0)",73.1
same,"Blood Pressure diastolic, Supine (Mean)","40-mg group, Visit 1 (Day 0)",72.3
same,"Blood Pressure systolic, Standing (Mean)","40-mg group, Visit 1 (Day 0)",129.5
same,"Blood Pressure systolic, Supine (Mean)","40-mg group, Visit 1 (Day 0)",129.7
same,"Diastolic BP, Orthostatic Changes","40-mg group, Visit 1 (Day 0)",0.8
same,"Pulse, Orthostatic Changes","40-mg group, Visit 1 (Day 0)",1.8
same,"Pulse, Standing (Mean)","40-mg group, Visit 1 (Day 0)",75.8
same,"Pulse, Supine (Mean)","40-mg group, Visit 1 (Day 0)",74.1
same,"Systolic BP, Orthostatic Changes","40-mg group, Visit 1 (Day 0)",−0.3
same,"Blood Pressure diastolic, Standing (Mean)","40-mg group, Visit 2 (Day 1)",72.6
same,"Blood Pressure diastolic, Supine (Mean)","40-mg group, Visit 2 (Day 1)",70.5
same,"Blood Pressure systolic, Standing (Mean)","40-mg group, Visit 2 (Day 1)",128.3
same,"Blood Pressure systolic, Supine (Mean)","40-mg group, Visit 2 (Day 1)",128.0
same,"Diastolic BP, Orthostatic Changes","40-mg group, Visit 2 (Day 1)",2.1
same,"Pulse, Orthostatic Changes","40-mg group, Visit 2 (Day 1)",4.5
same,"Pulse, Standing (Mean)","40-mg group, Visit 2 (Day 1)",78.6
same,"Pulse, Supine (Mean)","40-mg group, Visit 2 (Day 1)",74.1
same,"Systolic BP, Orthostatic Changes","40-mg group, Visit 2 (Day 1)",0.3
same,"Blood Pressure diastolic, Standing (Mean)","40-mg group, Visit 3 (Day 4)",73.1
same,"Blood Pressure diastolic, Supine (Mean)","40-mg group, Visit 3 (Day 4)",72.5
same,"Blood Pressure systolic, Standing (Mean)","40-mg group, Visit 3 (Day 4)",129.4
same,"Blood Pressure systolic, Supine (Mean)","40-mg group, Visit 3 (Day 4)",129.8
same,"Diastolic BP, Orthostatic Changes","40-mg group, Visit 3 (Day 4)",0.6
same,"Pulse, Orthostatic Changes","40-mg group, Visit 3 (Day 4)",2.0
same,"Pulse, Standing (Mean)","40-mg group, Visit 3 (Day 4)",76.7
same,"Pulse, Supine (Mean)","40-mg group, Visit 3 (Day 4)",74.7
same,"Systolic BP, Orthostatic Changes","40-mg group, Visit 3 (Day 4)",−0.4
same,"Blood Pressure diastolic, Standing (Mean)","40-mg group, Visit 4 (Day 14)",71.0
same,"Blood Pressure diastolic, Supine (Mean)","40-mg group, Visit 4 (Day 14)",71.1
same,"Blood Pressure systolic, Standing (Mean)","40-mg group, Visit 4 (Day 14)",124.9
same,"Blood Pressure systolic, Supine (Mean)","40-mg group, Visit 4 (Day 14)",128.4
same,"Diastolic BP, Orthostatic Changes","40-mg group, Visit 4 (Day 14)",−0.1
same,"Pulse, Orthostatic Changes","40-mg group, Visit 4 (Day 14)",3.9
same,"Pulse, Standing (Mean)","40-mg group, Visit 4 (Day 14)",75.6
same,"Pulse, Supine (Mean)","40-mg group, Visit 4 (Day 14)",71.7
same,"Systolic BP, Orthostatic Changes","40-mg group, Visit 4 (Day 14)",−3.4
same,"Blood Pressure diastolic, Standing (Mean)","40-mg group, Visit 5 (Day 28)",71.6
same,"Blood Pressure diastolic, Supine (Mean)","40-mg group, Visit 5 (Day 28)",72.0
same,"Blood Pressure systolic, Standing (Mean)","40-mg group, Visit 5 (Day 28)",124.3
same,"Blood Pressure systolic, Supine (Mean)","40-mg group, Visit 5 (Day 28)",124.1
same,"Diastolic BP, Orthostatic Changes","40-mg group, Visit 5 (Day 28)",−0.4
same,"Pulse, Orthostatic Changes","40-mg group, Visit 5 (Day 28)",3.8
same,"Pulse, Standing (Mean)","40-mg group, Visit 5 (Day 28)",76.6
same,"Pulse, Supine (Mean)","40-mg group, Visit 5 (Day 28)",72.7
same,"Systolic BP, Orthostatic Changes","40-mg group, Visit 5 (Day 28)",0.3
same,"Blood Pressure diastolic, Standing (Mean)","40-mg group, Visit 6 (Day 70)",73.2
same,"Blood Pressure diastolic, Supine (Mean)","40-mg group, Visit 6 (Day 70)",73.7
same,"Blood Pressure systolic, Standing (Mean)","40-mg group, Visit 6 (Day 70)",127.6
same,"Blood Pressure systolic, Supine (Mean)","40-mg group, Visit 6 (Day 70)",127.3
same,"Diastolic BP, Orthostatic Changes","40-mg group, Visit 6 (Day 70)",−0.5
same,"Pulse, Orthostatic Changes","40-mg group, Visit 6 (Day 70)",3.5
same,"Pulse, Standing (Mean)","40-mg group, Visit 6 (Day 70)",73.9
same,"Pulse, Supine (Mean)","40-mg group, Visit 6 (Day 70)",7034
same,"Systolic BP, Orthostatic Changes","40-mg group, Visit 6 (Day 70)",0.3
same,"Blood Pressure diastolic, Standing (Mean)",[2],73.2
same,"Blood Pressure diastolic, Supine (Mean)",[2],71.3
same,"Blood Pressure systolic, Standing (Mean)",[2],122.2
same,"Blood Pressure systolic, Supine (Mean)",[2],126.7
same,"Diastolic BP, Orthostatic Changes",[2],1.9
same,"Pulse, Orthostatic Changes",[2],3.2
same,"Pulse, Standing (Mean)",[2],76.3
same,"Pulse, Supine (Mean)",[2],73.1
same,"Systolic BP, Orthostatic Changes",[2],−4.5
same,"Blood Pressure diastolic, Standing (Mean)",[3],68.7
same,"Blood Pressure diastolic, Supine (Mean)",[3],72.2
same,"Blood Pressure systolic, Standing (Mean)",[3],123.1
same,"Blood Pressure systolic, Supine (Mean)",[3],130.0
same,"Diastolic BP, Orthostatic Changes",[3],−3.5
same,"Pulse, Orthostatic Changes",[3],4.1
same,"Pulse, Standing (Mean)",[3],74.3
same,"Pulse, Supine (Mean)",[3],70.2
same,"Systolic BP, Orthostatic Changes",[3],−6.9
same,"Blood Pressure diastolic, Supine (Mean)",[4],69.4
same,"Blood Pressure systolic, Supine (Mean)",[4],132.4
same,"Pulse, Supine (Mean)",[4],63.9
same,"Blood Pressure diastolic, Standing (Mean)","80-mg group, Visit 1 (Day 0)",70.2
same,"Blood Pressure diastolic, Supine (Mean)","80-mg group, Visit 1 (Day 0)",68.4
same,"Blood Pressure systolic, Standing (Mean)","80-mg group, Visit 1 (Day 0)",125.4
same,"Blood Pressure systolic, Supine (Mean)","80-mg group, Visit 1 (Day 0)",129.8
same,"Diastolic BP, Orthostatic Changes","80-mg group, Visit 1 (Day 0)",1.8
same,"Pulse, Orthostatic Changes","80-mg group, Visit 1 (Day 0)",6.9
same,"Pulse, Standing (Mean)","80-mg group, Visit 1 (Day 0)",72.6
same,"Pulse, Supine (Mean)","80-mg group, Visit 1 (Day 0)",65.6
same,"Systolic BP, Orthostatic Changes","80-mg group, Visit 1 (Day 0)",−4.4
same,"Blood Pressure diastolic, Standing (Mean)","80-mg group, Visit 2 (Day 1)",71.9
same,"Blood Pressure diastolic, Supine (Mean)","80-mg group, Visit 2 (Day 1)",66.7
same,"Blood Pressure systolic, Standing (Mean)","80-mg group, Visit 2 (Day 1)",123.1
same,"Blood Pressure systolic, Supine (Mean)","80-mg group, Visit 2 (Day 1)",122.8
same,"Diastolic BP, Orthostatic Changes","80-mg group, Visit 2 (Day 1)",5.2
same,"Pulse, Orthostatic Changes","80-mg group, Visit 2 (Day 1)",7.3
same,"Pulse, Standing (Mean)","80-mg group, Visit 2 (Day 1)",72.3
same,"Pulse, Supine (Mean)","80-mg group, Visit 2 (Day 1)",65.1
same,"Systolic BP, Orthostatic Changes","80-mg group, Visit 2 (Day 1)",0.3
same,"Blood Pressure diastolic, Standing (Mean)","80-mg group, Visit 3 (Day 4)",69.2
same,"Blood Pressure diastolic, Supine (Mean)","80-mg group, Visit 3 (Day 4)",66.7
same,"Blood Pressure systolic, Standing (Mean)","80-mg group, Visit 3 (Day 4)",124.8
same,"Blood Pressure systolic, Supine (Mean)","80-mg group, Visit 3 (Day 4)",127.1
same,"Diastolic BP, Orthostatic Changes","80-mg group, Visit 3 (Day 4)",2.5
same,"Pulse, Orthostatic Changes","80-mg group, Visit 3 (Day 4)",6.2
same,"Pulse, Standing (Mean)","80-mg group, Visit 3 (Day 4)",72.9
same,"Pulse, Supine (Mean)","80-mg group, Visit 3 (Day 4)",66.7
same,"Systolic BP, Orthostatic Changes","80-mg group, Visit 3 (Day 4)",−2.3
same,"Blood Pressure diastolic, Standing (Mean)","80-mg group, Visit 4 (Day 14)",68.8
same,"Blood Pressure diastolic, Supine (Mean)","80-mg group, Visit 4 (Day 14)",65.2
same,"Blood Pressure systolic, Standing (Mean)","80-mg group, Visit 4 (Day 14)",123.7
same,"Blood Pressure systolic, Supine (Mean)","80-mg group, Visit 4 (Day 14)",125.1
same,"Diastolic BP, Orthostatic Changes","80-mg group, Visit 4 (Day 14)",3.5
same,"Pulse, Orthostatic Changes","80-mg group, Visit 4 (Day 14)",7.9
same,"Pulse, Standing (Mean)","80-mg group, Visit 4 (Day 14)",72.6
same,"Pulse, Supine (Mean)","80-mg group, Visit 4 (Day 14)",64.6
same,"Systolic BP, Orthostatic Changes","80-mg group, Visit 4 (Day 14)",−1.4
same,"Blood Pressure diastolic, Standing (Mean)","80-mg group, Visit 5 (Day 28)",71.9
same,"Blood Pressure diastolic, Supine (Mean)","80-mg group, Visit 5 (Day 28)",68.9
same,"Blood Pressure systolic, Standing (Mean)","80-mg group, Visit 5 (Day 28)",119.5
same,"Blood Pressure systolic, Supine (Mean)","80-mg group, Visit 5 (Day 28)",124.6
same,"Diastolic BP, Orthostatic Changes","80-mg group, Visit 5 (Day 28)",3.0
same,"Pulse, Orthostatic Changes","80-mg group, Visit 5 (Day 28)",3.8
same,"Pulse, Standing (Mean)","80-mg group, Visit 5 (Day 28)",72.5
same,"Pulse, Supine (Mean)","80-mg group, Visit 5 (Day 28)",68.7
same,"Systolic BP, Orthostatic Changes","80-mg group, Visit 5 (Day 28)",−5.2
same,"Blood Pressure diastolic, Standing (Mean)","80-mg group, Visit 6 (Day 70)",70.0
same,"Blood Pressure diastolic, Supine (Mean)","80-mg group, Visit 6 (Day 70)",66.2
same,"Blood Pressure systolic, Standing (Mean)","80-mg group, Visit 6 (Day 70)",124.8
same,"Blood Pressure systolic, Supine (Mean)","80-mg group, Visit 6 (Day 70)",123.1
same,"Diastolic BP, Orthostatic Changes","80-mg group, Visit 6 (Day 70)",3.8
same,"Pulse, Orthostatic Changes","80-mg group, Visit 6 (Day 70)",2.1
same,"Pulse, Standing (Mean)","80-mg group, Visit 6 (Day 70)",67.6
same,"Pulse, Supine (Mean)","80-mg group, Visit 6 (Day 70)",65.5
same,"Systolic BP, Orthostatic Changes","80-mg group, Visit 6 (Day 70)",1.6
same,"Blood Pressure diastolic, Standing (Mean)",[5],67.1
same,"Blood Pressure diastolic, Supine (Mean)",[5],64.4
same,"Blood Pressure systolic, Standing (Mean)",[5],123.3
same,"Blood Pressure systolic, Supine (Mean)",[5],118.4
same,"Diastolic BP, Orthostatic Changes",[5],2.7
same,"Pulse, Orthostatic Changes",[5],6.1
same,"Pulse, Standing (Mean)",[5],70.4
same,"Pulse, Supine (Mean)",[5],64.3
same,"Systolic BP, Orthostatic Changes",[5],4.8
same,"Blood Pressure diastolic, Standing (Mean)",[6],67.9
same,"Blood Pressure diastolic, Supine (Mean)",[6],66.9
same,"Blood Pressure systolic, Standing (Mean)",[6],117.7
same,"Blood Pressure systolic, Supine (Mean)",[6],120.7
same,"Diastolic BP, Orthostatic Changes",[6],1.0
same,"Pulse, Orthostatic Changes",[6],4.3
same,"Pulse, Standing (Mean)",[6],72.6
same,"Pulse, Supine (Mean)",[6],68.3
same,"Systolic BP, Orthostatic Changes",[6],−3.0
same,Hypotensive effects,"treated groups, 40 and 80 mg BID",Dose dependent hypotensive affects were observed
